How the values were obtained:
P388/Cis--Pt = test: In vivo activity against drug resistant tumour P388/Cis-Pt; parameters: species or system mouse; settings: optimum dose 10.0 mg/kg
P388/ActD = test: In vivo activity against drug resistant tumour P388/ActD; parameters: species or system mouse; settings: optimum dose 12.5 mg/kg
Description: (§1) CD2-F1 mice, of the same sex, weighing within a 3 gram range surrounding 20 g, are used for this test. Control and test animals are injected intraperitoneally with a suspension of 10^6 viable P388/O tumour cells on day 0. In each test several dose levels which bracket the LD20 for the compound are evaluated; each dose level group contains 6 animals. The test compounds are prepared either in physiologic saline containing 0.05% Tween 80 or distilled water containing 5% dextrose and are administered intraperitoneally on days 1,5 and 9 relative to tumour implant. Doses are on a mg/kg basis according to individual animals' body weights. The day of death for each animal is recorded and the median day of death identified for each group. The difference between the median survival time for treated and control groups is expressed as a percentage increase in life span (% ILS).
(§2) E. Activity Against Drug-Resistant Tumours
(§3) Using a similar procedure to the Lymphocytic Leukaemia P388/O test, the compound of Example 1 was evaluated against P388/O tumours which had been made resistant to the following standard, clinically used anti-tumour agents: […]

P388/VCR = test: In vivo activity against drug resistant tumour P388/VCR; parameters: species or system mouse; settings: optimum dose 12.5 mg/kg
Description: as §1, §2, §3

[1] = test system: DLD-1 human colon carcinoma cells; test: In vitro activity against human tumour cell line DLD-1 (proliferation); type: cell-based; settings: DLD-1, 96 h, methylene blue, read-out: IC50
Description: Cells from the human tumour cell lines DLD-1, HCT-116, WiDr and A549 are exposed to serially diluted concentrations of test compounds over a 96 hour period in culture. The ability of such cells to proliferate over the test period is determined.
Cells in log growth are plated into 96 well multiwell tissue culture dishes in 100 μl/well of RPMI 1640 culture medium supplemented with 10% foetal calf serum, antibiotics and test compound. All compounds are formulated initially at appropriate concentrations in DMSO, the final concentrations in this solvent being twenty times that required in the plate. A final 1 in 10 dilution in complete medium is then made before adding 100 μl to each well of the plate. All compounds are evaluated at concentrations ranging serially in four fold decrements from a top concentration some four fold greater than that already known to inhibit the proliferation of cells from the mouse lymphoid neoplasm, P388D1 by about 80 to 90 percent in a primary proliferative assay.
After 96 hours the proliferation of cells exposed to test compound is compared with control untreated cells by one of two methods:
a) Culture supernatants are aspirated and cells fixed and stained by adding a solution of methylene blue (5 g per liter of 50% ethanol: water, 100 μl/well). After 30 minutes at room temperature unbound stain is washed off by immersing plates in water. Stained cells are solubilised overnight using 1% Sarkosyl (Sigma) in phosphate-buffered saline (100 μl/well). Absorbances are read by an ELISA plate spectrophotometer at a wavelength of 620 nm. The IC50 is defined as that concentration of drug which decreases absorbance to 50% of that in control (drug-free) cultures. This method is used for the DLD-1 cell line.

## COC(=O)Nc1cn2nc(OCc3cc(OC)c(OC)c(OC)c3)ccc2n1 [Example 1, Methyl N-[6-(3,4,5-trimethoxybenzyloxy)imidazo[1,2-b]pyridazin-2-yl]carbamate]
P388/Cis--Pt
  60 Day Survivors: 1/6
  % ILS: +50%
P388/ActD
  60 Day Survivors: 1/6
  % ILS: +109%
P388/VCR
  60 Day Survivors: 3/6
  % ILS: +145%
[1]
  IC50: 11.6 nM
